The results in this text go back to PMC12455130, “Multifunctional molecular agent for tau-targeted combinational therapy of Alzheimer’s disease” (The Journal of Biological Chemistry, 2025).

A word on the pIC50: it is the negative decadic logarithm of the IC50, by convention in mol/L. High values mean a low IC50, low ones a high IC50.

Assay [1] addresses T1, R3 fibrils (Homo sapiens, UniProt P10636).
T1 construct: R3 (^306VQIVYK PVDLSK VTSKCG SLGNIH HKPGGG Q^336) and rabbit anti-tau antibody were purchased from MuJin; purchased MuJin
As to the kind of experiment: TEM of heparin-induced R3 fibrils. It counts as biochemical. The procedure: To further confirm the inhibitory efficiency of 4GA and 2GA on R3 fibril formation, the morphology of heparin-induced R3 aggregates at different conditions was characterized by transmission electron microscopy (TEM) (Fig. 4C). After incubation, the mature fibrils of R3 were interweaved and serried in the absence of 4GA or 2GA (0 μM).
For detecting the inhibitory efficiency of inhibitors, 15 μM R3, 3.8 μM heparin, and 4GA/2GA/4ME/GA (0, 10, and 40 μM) in 50 mM Tris–HCl buffer (pH 7.4) was incubated at 37 °C for 3 h, respectively. For exploring the effect of Cu^2+ on R3 aggregation, 15 μM R3, 3.8 μM heparin was mixed in the presence or the absence of 3.8 μM Cu^2+ in 50 mM Hepes buffer (pH 7.4). Then, 10 μM 4GA/2GA/4ME/GA was added to the solution. After 3 h incubation, 10 μl of each solution was applied on a carbon support membrane, followed by 10 μl of 2% uranyl acetate, and dried at room temperature. The operation was carried out on transmission electron microscope (JEM-2100, provieded by JEOL).

Assay [2] has as its target T2, tau peptide R3 (Homo sapiens, UniProt P10636).
T2 construct: R3 (^306VQIVYK PVDLSK VTSKCG SLGNIH HKPGGG Q^336) and rabbit anti-tau antibody were purchased from MuJin; purchased MuJin
As to the kind of experiment: ThS assay, heparin-induced R3 aggregation (kinetics and dose-response). It counts as biochemical. To be noted: for pIC50: 3 h at 37 °C, ThS fluorescence; for inhibition of R3 assembly (ThS kinetics): 5, 10 and 40 μM, 15 μM R3, heparin. As to the method:
The inhibition effect of 4GA–2GA on R3 aggregation was explored by thioflavin S (ThS) assay ([24]). In general, the kinetics of R3 aggregation in the absence or the presence of 4GA, 2GA was assessed by measuring the emission intensity of ThS at 500 nm, which reflects the amount of R3 aggregates. As the control experiments, the aggregation kinetics of 4ME and GA were also carried out. While induced by heparin, R3 aggregates rapidly at 37 °C, and the fluorescence of ThS reaches a maximum after an average time of 200 s (Fig. 4A). Based on the aforementioned conditions, the inhibitory ability of our synthetic compounds at three different concentrations (5, 10, and 40 μM) was tested.
Next, the dose–response inhibitory effects of our synthetic compounds on R3 aggregation were investigated. The detailed experimental operation was descripted in ESI. […] The apparent values of IC50 were calculated according to the dose−response curve.
Tau peptide R3 was adjusted to a concentration of 15 μM using 50 mM Tris−HCl buffer (pH 7.4), ThS (final concentration of 10 μM), and different amounts of 4GA, 2GA, 4ME, and GA (final concentration of 0, 5, 10, and 40 μM) as the aggregation inhibitor were added in1to the reaction mixture. Aggregation was induced by adding heparin to the solution (final concentration of 3.8 μM); the kinetics of each sample was immediately monitored by a fluorescence spectrophotometer with a 10-mm quartz cell at 440/500 nm (excitation/emission). A circulating water bath was necessary to maintain the temperature at 37 °C.
Tau peptide R3 was adjusted to a concentration of 15 μM using 50 mM Tris–HCl buffer (pH 7.4). Different amounts of 4GA, 2GA, 4ME, and GA (final concentration of 0, 1, 2, 4, 6, 10, 15, 20, 30, 40, 60, or 80 μM) as the aggregation inhibitors were added into the reaction mixture. Aggregation was induced by adding heparin to the solution (final concentration of 3.8 μM), After 3 h incubation at 37°C, ThS (final concentration of 10 μM) was added, and the fluorescence intensity at 440/500 nm (excitation/emission) was recorded on Hitachi F-7000 with a 10-mm quartz cell. The dose−response inhibitory effects of R3 aggregation were expressed by the aggregation percentage, which was calculated according to the following (Formula 4.3):(4.3) aggregation%=F-F0/Ft-F0×100
where F0 = fluorescence intensity of R3 monomer, Ft = fluorescence intensity of R3 aggregate, and F = fluorescence intensity of R3 aggregate in the presence of inhibitors. The IC50 values were also calculated according to the dose−response inhibitory effects.
Tau peptide R3 was adjusted to a concentration of 15 μM using Tris−HCl buffer (pH 7.4), and the synthetic compounds (4GA, 2GA, together with 4ME, GA as the comparison) at different concentrations, as aggregation inhibitor, were added into the reaction mixture separately. Aggregation was induced by heparin, and incubated at 37 °C for 3 h. By introducing fluorescence probe ThS, the dose−response inhibitory effects on R3 aggregation were recorded, according to normalized ThS fluorescence intensity (excitation: 440 nm, emission: 500 nm).
Figure S14. Inhibitory effects of N-substituted Azacrown on heparin-induced R3 aggregation, exermined by ThS fluorescence: 15 μM R3 and 3.8 μM heparin with cyclen, 1ME, 2ME, 3ME, and 4ME (80 μM) was incubated respectively at 37°C for 3h. 10 μM ThS was added to each of the solution, Spectra of ThS fluorescence were recorded at Ex440 nm.

Assay [3] relates to SK-N-SH cells. The assay can be described thus: Cell rescue assay (CCK-8) against R3 aggregates / Cu2+. It counts as cell-based, human. To be noted: R3, heparin, Cu2+ preincubated with compound (20 μM), diluted 1:1, 24 h. The procedure: In this regard, we next evaluated the detoxification effect of 4GA and 2GA in the SK-N-SH cells treated with different components with possible cytotoxicity, including R3, R3 aggregates (R3 + heparin), Cu^2+, 4GA, 2GA, GA, and 4ME in indicated conditions, as shown in Figure 6B.
For cell rescue assay, 30 μM R3, 7.5 μM heparin was incubated in FBS–DMEM containing 7.5 μM Cu^2+ and different compounds (20 μM) at 37 °C for 1 h. Then, 500 μl of preincubated R3 solution was diluted with 500 μl fresh FBS–DMEM, and the mixture was used to replace the old medium after the cell attached to the 96-well plate. After cultured for 24 h, CCK-8 was used to measure the cell viability.

SMILES strings stand for the structures. pIC50: −log10 of the molar value.

T2 sequence (P10636 623-653 limits assumed): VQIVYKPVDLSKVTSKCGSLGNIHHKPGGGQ
T1 sequence (P10636 623-653 limits assumed): as above

Take `CN1CCN(C(=O)c2cc(O)c(O)c(O)c2)CCN(C)CCN(C(=O)c2cc(O)c(O)c(O)c2)CC1` [2GA, (4,10-dimethyl-1,4,7,10-tetraazacyclododecane-1,7-diyl)bis((3,4,5-trihydroxyphenyl)methanone)]: in assay [1] (10 μM inhibitor), the “R3 fibril morphology (TEM)” value is listed as “smaller numbers of short R3 filaments”. This compound also gave a pIC50 in assay [2] (15 μM R3, 3.8 μM heparin) of 5.26. The “inhibition of R3 assembly (ThS kinetics)” value in assay [2] (37 °C) is “strongly inhibited R3 assembly”. Moreover, the “rescue of cell viability against R3 aggregates or Cu2+” value (“rescue of cell viability” for short) in assay [3] is listed as “dramatically elevates the cell viability”.

Consider `CN1CCN(C)CCN(C)CCN(C)CC1` [4ME, 1,4,7,10-tetramethyl-1,4,7,10-tetraazacyclododecane, reference compound], for which, in assay [2] (80 μM compound, 15 μM R3, 3.8 μM heparin, 37 °C, 3 h), the “effect on heparin-induced R3 aggregation (ThS fluorescence at 500 nm)” value is listed as “did not hinder the aggregation of R3 peptides”. Also, in assay [3], the “rescue of cell viability” value is given as “only a limited rescue ability”.

Turning to `O=C(O)c1cc(O)c(O)c(O)c1` [GA, gallic acid, reference compound], the “R3 fibril morphology (TEM)” value in assay [1] (even at high concentrations) was “could hardly change the number and length of R3 fibrils”. The pIC50 in assay [2] (15 μM R3, 3.8 μM heparin) was less than 4.10. In assay [3], the “rescue of cell viability” value is “only a limited rescue ability”.

`O=C(c1cc(O)c(O)c(O)c1)N1CCN(C(=O)c2cc(O)c(O)c(O)c2)CCN(C(=O)c2cc(O)c(O)c(O)c2)CCN(C(=O)c2cc(O)c(O)c(O)c2)CC1` [4GA, (1,4,7,10-tetraazacyclododecane-1,4,7,10-tetrayl)tetrakis((3,4,5-trihydroxyphenyl)methanone)]: in assay [1] (10 μM inhibitor), the “R3 fibril morphology (TEM)” value is listed as “smaller numbers of short R3 filaments”. In assay [2] (15 μM R3, 3.8 μM heparin), this compound gave a pIC50 of 5.42. The “inhibition of R3 assembly (ThS kinetics)” value in assay [2] (37 °C) is “strongly inhibited R3 assembly”. Also, the “rescue of cell viability” value in assay [3] was “dramatically elevates the cell viability”.
